# Measured values from patent publication US20180228799A1, “Treatment for Neurological and Mental Disorders” (PSYCHOGENICS, INC., priority 2008, published 2018).
# Test system: rats
# Experiment: Radial arm maze, scopolamine-induced working memory deficit
# Assay type: in vivo
# Details: scopolamine 0.5 mg/kg IP, FIG. 2
# Protocol: Several mazes, such as the radial arm maze (RAM) have been adapted to assess working memory in rodents. The RAM consists of eight long runways radiating out in a circle from a central compartment. In the RAM rats learn to retrieve food rewards from all or a sub-set of the arms. Working memory is assessed by measuring entries into previously baited arms within a given trial. […] Hippocampal lesions produce deficits both in adults and in the neonatal hippocampal lesion model of schizophrenia.
# For training, food deprived rats were placed in an enclosed cylinder in the center of the maze for 20 s, prior to being allowed to explore the maze by removing the cylinder. Each radial arm is baited with a food reward. Animals were given a maximum of 5 minutes to retrieve all food rewards. This training continued once daily for three weeks until animals met the performance criteria for successful acquisition of the task.
# Four parameters were recorded to assess the performance of the rat: (1) the number of errors, which is defined as entering an arm that had already been entered, (2) the number of consecutive entries into un-visited arms before the first error occurred (entries to repeat), (3) latency to complete the task, and (4) the total number of arm entries before all food in the eight arms is collected or the maximum session duration is reached. […]
structure (smiles),measurement,value
"CN1[C@@H]2C[C@@H](OC(=O)[C@H](CO)c3ccccc3)C[C@H]1[C@@H]1O[C@@H]12 [scopolamine, reference compound]",Entries to repeat in the radial arm maze compared to baseline,decreased entries to repeat
